Assay results as given in patent publication US20250051375A1, “ANTI-HIV COMPOUNDS” (Gilead Sciences, Inc., priority 2023, published 2025).
Values after ≈ are worked out from the molar mass of the structure shown. Where two headings read alike, the source gives them in different places.

What was measured:
[1] = target: bovine intestinal alkaline phosphatase (Bos taurus (Bovine), UniProt P19111); test: BiALP: conversion by bovine intestinal alkaline phosphatase; assay type: in vitro ADME; conditions: 2 μM substrate, 100 ng/mL iALP, Tris pH 7.8, 37° C., 60 minutes; for [Intermediate A] or [Amprenavir]: parent formed
Description: Fosamprenavir and its parent compound (amprenavir) were purchased from Millipore Sigma (St. Louis, MO). Test compounds, Intermediate A, fosamprenavir, and amprenavir were each separately dissolved in dimethyl sulfoxide (DMSO) at a concentration of 10 mM to form stock solutions.
All other chemicals were purchased from Millipore Sigma (St. Louis, MO) and Thermo Fisher Scientific (Waltham, MA). […] Internal Standard/Quench (IS/Q) was 100 nM labetalol in 99:1 (v/v) acetonitrile/formic acid.
Incubations were performed with Tris buffer alone (0.1 M Tris-HCl pH 7.8 containing 1 mM MgCl2 and 1 mM ZnCl2) or the same Tris buffer further containing 100 ng/mL iALP (0.01 units/mL). Triplicate 100 μL aliquots of Tris buffer±iALP were warmed to 37° C. and the reactions were initiated by the addition of the test compound or fosamprenavir to obtain final substrate concentrations of 2 μM. Incubations were then continued at 37° C. At 60 minutes, reactions were terminated by the addition of 200 μl of IS/Q and mixed by pipette. […] Aliquots (150 μL) of the supernatants were transferred to fresh plates containing 150 μL of water. Aliquots (15 μL) of the diluted supernatants were analyzed by mass spectrometry as described below.
Quantification of the test compounds and fosamprenavir was performed by analyte/internal standard peak area ratios (PARs) with comparison to 2 μM Intermediate A and amprenavir, respectively. The LC instrumentation consisted of a Thermo Scientific Vanquish pump and a Thermo Hypersil Gold column (1.9 μm particle size, 2.1×50 mm). […] The MS instrument was a Thermo Q Exactive™ Plus operating in positive ionization mode with mass tolerance of 5 ppm and calibrated on a twice weekly basis.

HIV-1 IIIB strain = test: MT-4 HIV Wild Type Virus Infection Assay (IIIB Virus); assay type: cell-based; conditions: Human immunodeficiency virus 1, IIIB, MT4, 120 h, MT-4 cells acutely infected with HIV-1 IIIB, 5 day incubation, Cell-titer glo
Description: Test compounds and controls were serially diluted and spotted in replicate into 384 well black assay plates via acoustic transfer (Echo). MT-4 cells were grown in batch, centrifuged and resuspended into fresh CCM media (RPMI w/10% FBS, 1% PS) at 2×10^6 cells/ml. MT-4 cells were acutely infected with HIV-1 IIIB strain. The size of each infection mix was scaled by the number of sample plates to be tested. Each infection mix was transferred into 5 mL closed tubes and nutated rapidly on a shaker at 37° C. incubator for 1 hour. The infection mixes were then diluted 25× in fresh cell culture media and then added to assay plates at 40 μL per well using a ViaFlo 384 pipettor. After 5 day incubation at 37° C. in a CO2 incubator, assay plates were processed with Cell-titer glo reagent using a ViaFlo 384 with an addition/mixing program. Plates were read immediately on Envision reader. Assay signals were plotted and dose response curves generated to determine individual compound EC50s.

Solubility in FaSSIF = conditions: 23 °C, pH 6.5, fassif, thermodynamic from solid
Description: Buffer Preparation: Fasted State Simulated Intestinal Fluid (FaSSIF): Simulated Intestinal Fluid (SIF) powder containing a complex of Taurocholate and Lecithin (4:1 molar ratio) was obtained from Biorelevant. 0.056 g of SIF powder was added to 25 mL of buffer, adjusted to pH 6.5, containing 0.011 g of NaOH (pellets), 0.099 g of NaH2PO4 (monohydrate), and 0.155 g of NaCl. The buffer was prepared with HPLC H2O. The SIE powder was stirred until completely dissolved and allowed to stand for 2 hours.
Test Compounds: Each test compound was placed in a vial containing approximately 7 mg of material. Aliquots were weighed out for each assay media at each time point to be analyzed. The buffer was added to each vial such that the final dose concentration of 5 mg/mL was achieved. Samples were then vortexed for 5-10 seconds.
The plate was sealed with a pierceable heat seal and analyzed by HPLC-UV.

PBS Stability Assay = assay type: physicochemical; conditions: buffer, pH 7.4, 2 μM, phosphate buffered saline pH 7.4; read-out: PBS T½
Description: Reagents. Stock solutions of test compounds in dimethyl sulfoxide (DMSO) having a final concentration of 10 mM were prepared and used in all experiments. Sekisui XenoTech (Kansas City, KS) provided pooled intestinal S9 fractions. All other chemicals were purchased from Sigma-Aldrich (St. Louis, MO) or VWR (West Chester, PA). Internal Standard/Quench (IS/Q) used to stop reactions was 100 nM labetalol in (by volume) formic acid (1%) and acetonitrile (99%).
PBS Stability Assay: For each test compound, an aliquot of the test compound was added to phosphate buffered saline (137 mM NaCl, 2.7 mM KCl, 10 mM phosphate buffer), pH 7.4. The incubation was initiated by the addition of the test compound to PBS to a final concentration of 2 μM. At 0, 10, 20, 30, 60 and 120 min, 25 μL aliquots of the incubation mixture were transferred to plates containing 225 μl of IS/Q solution. After quenching, the plates were centrifuged at 3000×g for 30 minutes. 150 μL aliquots of each supernatant were transferred to new plates and 150 μL water was added. Aliquots (10 μL) of the prepared samples were analyzed on a Thermo Q-Exactive mass spectrometer as described below.
Liquid Chromatography-Mass Spectrometry: Quantification of test compounds and control substrate was performed by analyte/internal standard peak area ratio (PAR) values measured on a Thermo Q-Exactive mass spectrometer coupled to a Dionex UltiMate 3000 HPLC with a Leap Technologies HTC PAL autosampler. The column used for analysis was a Thermo Scientific Hypersil GOLD (1.9 μm particle size, 50×2.1 mm). Mobile phase A consisted of 0.1% (v/v) formic acid in water. Mobile phase B consisted of 0.1% (v/v) formic acid in acetonitrile. Elution of analytes was achieved by a series of linear gradients varying the proportions of A and B. The mass spectrometer was calibrated on a weekly basis and mass tolerance of 5 ppm was used.
Data Analysis. Metabolic stabilities were determined by measuring the rates of disappearance of test compound and positive control substrate. Data (% of substrate remaining) were plotted on a semi-log scale and fitted using an exponential decline model:
where • Ct% of substrate remaining at time=t • C0% of substrate remaining at time=0 • t time • T½ half-life • The Half-life (T½) is determined by the following equation:
[formula] • Assuming a first-order reaction, the slope (k) is extrapolated from the aforementioned plotted data.

Sequence of bovine intestinal alkaline phosphatase (P19111 20-506): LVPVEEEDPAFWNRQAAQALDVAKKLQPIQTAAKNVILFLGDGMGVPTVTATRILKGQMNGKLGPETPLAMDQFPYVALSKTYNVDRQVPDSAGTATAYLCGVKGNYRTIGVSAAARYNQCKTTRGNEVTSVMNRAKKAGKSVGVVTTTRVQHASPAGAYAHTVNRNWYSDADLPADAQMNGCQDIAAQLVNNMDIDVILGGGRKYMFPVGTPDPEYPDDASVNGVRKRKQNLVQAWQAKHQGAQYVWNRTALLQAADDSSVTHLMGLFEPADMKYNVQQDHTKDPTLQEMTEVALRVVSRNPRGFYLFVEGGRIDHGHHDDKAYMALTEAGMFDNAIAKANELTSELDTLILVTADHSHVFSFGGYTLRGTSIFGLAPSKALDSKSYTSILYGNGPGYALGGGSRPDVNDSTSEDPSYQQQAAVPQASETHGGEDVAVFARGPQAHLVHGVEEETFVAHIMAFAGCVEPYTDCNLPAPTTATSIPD

Structure (SMILES) | [Compound] [1] [nM] | EC50 (HIV-1 IIIB strain) [nM] | solubility at 2 h (Solubility in FaSSIF) [µg/mL] | further results
COC(=O)N[C@H](C(=O)N[C@@H](Cc1ccc(C#Cc2cnc(N3CC4CCC(C3)N4C3COC3)nc2)cc1)[C@H](CN(Cc1c(F)cc(-c2ccn(C(F)F)n2)cc1F)NC(=O)[C@@H](NC(=O)OC)C(C)(C)C(F)(F)F)OC(=O)CC(C)(C)c1c(CC(=O)N([C@H](C)C(=O)O)S(=O)(=O)O)cccc1OP(=O)(O)O)C(C)(C)C(F)(F)F [Example 39] | 1310.3 |  |  | 
COC(=O)N[C@H](C(=O)N[C@@H](Cc1ccc(C#Cc2cnc(N3CC4CCC(C3)N4C3COC3)nc2)cc1)[C@H](CN(Cc1c(F)cc(-c2ccn(C(F)F)n2)cc1F)NC(=O)[C@@H](NC(=O)OC)C(C)(C)C(F)(F)F)OC(=O)OCOC(=O)CC(C)(C)c1c(CC(=O)N2CCCC2C(=O)O)cc(C)cc1OP(=O)(O)O)C(C)(C)C(F)(F)F (stereo partly shown) [Example 78] | 2070.6 | 3.1 | 4390 (≈ 2650 µM) | 
COC(=O)N[C@H](C(=O)N[C@@H](Cc1ccc(C#Cc2cnc(N3CC4CCC(C3)N4C3COC3)nc2)cc1)[C@H](CN(Cc1c(F)cc(-c2ccn(C(F)F)n2)cc1F)NC(=O)[C@@H](NC(=O)OC)C(C)(C)C(F)(F)F)OC(=O)CC(C)(C)c1c(CC(=O)N2CCN(S(N)(=O)=O)CC2)cc(C)cc1OP(=O)(O)O)C(C)(C)C(F)(F)F [Example 81, (5S,10S,11S,14S)-8-(4-(1-(difluoromethyl)-1H-pyrazol-3-yl)-2,6-difluorobenzyl)-11-(4-((2-(8-(oxetan-3-yl)-3,8-diazabicyclo[3.2.1]octan-3-yl)pyrimidin-5-yl)ethynyl)benzyl)-3,6,13,16-tetraoxo-5,14-bis(1,1,1-trifluoro-2-methylpropan-2-yl)-2,17-dioxa-4,7,8,12,15-pentaazaoctadecan-10-yl 3-methyl-3-(4-methyl-2-(2-oxo-2-(4-sulfamoylpiperazin-1-yl)ethyl)-6-(phosphonooxy)phenyl)butanoate] | 2385.2 | 627 | < 1000 | biALP Intermediate A or [Amprenavir] (% of total) [1]: 0 % of total; [Intermediate A] or [Amprenavir] [1]: 0 nM
COC(=O)N[C@H](C(=O)N[C@@H](Cc1ccc(C#Cc2cnc(N3CC4CCC(C3)N4C3COC3)nc2)cc1)[C@H](CN(Cc1c(F)cc(-c2ccn(C(F)F)n2)cc1F)NC(=O)[C@@H](NC(=O)OC)C(C)(C)C(F)(F)F)OC(=O)CC(C)(C)c1c(CC(=O)N2CCN(S(C)(=O)=O)CC2)cc(C)cc1OP(=O)(O)O)C(C)(C)C(F)(F)F [Example 80, (5S,10S,11S,14S)-8-(4-(1-(difluoromethyl)-1H-pyrazol-3-yl)-2,6-difluorobenzyl)-11-(4-((2-(8-(oxetan-3-yl)-3,8-diazabicyclo[3.2.1]octan-3-yl)pyrimidin-5-yl)ethynyl)benzyl)-3,6,13,16-tetraoxo-5,14-bis(1,1,1-trifluoro-2-methylpropan-2-yl)-2,17-dioxa-4,7,8,12,15-pentaazaoctadecan-10-yl 3-methyl-3-(4-methyl-2-(2-(4-(methylsulfonyl)piperazin-1-yl)-2-oxoethyl)-6-(phosphonooxy)phenyl)butanoate] | 2507.9 | 735 | < 1000 | biALP Intermediate A or [Amprenavir] (% of total) [1]: 0 % of total; [Intermediate A] or [Amprenavir] [1]: 0 nM
COC(=O)N[C@H](C(=O)N[C@@H](Cc1ccc(C#Cc2cnc(N3CC4CCC(C3)N4C3COC3)nc2)cc1)[C@H](CN(Cc1c(F)cc(-c2ccn(C(F)F)n2)cc1F)NC(=O)[C@@H](NC(=O)OC)C(C)(C)C(F)(F)F)OC(=O)OCOC(=O)CC(C)(C)c1c(C)cc(C)cc1OP(=O)(O)O)C(C)(C)C(F)(F)F [Example 12] |  |  |  | EC50 (HIV-1 IIIB strain; read-out: EC50): 23.4 nM; half-life at 2 μM (PBS Stability Assay): 4.92 h
CC(C)CN(C[C@@H](OP(=O)(O)O)[C@H](Cc1ccccc1)NC(=O)O[C@H]1CCOC1)S(=O)(=O)c1ccc(N)cc1 [Fosamprenavir, fosamprenavir, reference compound] | 1605 |  |  | 
COC(=O)N[C@H](C(=O)N[C@@H](Cc1ccc(C#Cc2cnc(N3CC4CCC(C3)N4C3COC3)nc2)cc1)[C@H](CN(Cc1c(F)cc(-c2ccn(C(F)F)n2)cc1F)NC(=O)[C@@H](NC(=O)OC)C(C)(C)C(F)(F)F)OC(=O)CC(C)(C)c1c(CC(=O)N([C@H](C)C(=O)O)S(=O)(=O)O)cc(C)cc1OP(=O)(O)O)C(C)(C)C(F)(F)F [Example 32] | 1435.5 |  |  | 
COC(=O)N[C@H](C(=O)N[C@@H](Cc1ccc(C#Cc2ccc(N3CC4CCC(C3)N4C3COC3)nc2)cc1)[C@H](CN(Cc1c(F)cc(-c2ccn(C(F)F)n2)cc1F)NC(=O)[C@@H](NC(=O)OC)C(C)(C)C(F)(F)F)OC(=O)CC(C)(C)c1c(CC(=O)NC(CC(=O)O)C(=O)O)cc(C)cc1CP(=O)(O)O)C(C)(C)C(F)(F)F (stereo partly shown) [Example 23] | 2107.1 |  |  | 
COC(=O)N[C@H](C(=O)N[C@@H](Cc1ccc(C#Cc2cnc(N3CC4CCC(C3)N4C3COC3)nc2)cc1)[C@H](CN(Cc1c(F)cc(-c2ccn(C(F)F)n2)cc1F)NC(=O)[C@@H](NC(=O)OC)C(C)(C)C(F)(F)F)OC(=O)OCOC(=O)CC(C)(C)c1c(CC(=O)N2CCN(CC(=O)O)CC2)cc(C)cc1OP(=O)(O)O)C(C)(C)C(F)(F)F [Example 77] | 2259 | 8.3 | 2760 (≈ 1640 µM) | 
